Source: publication PMC9312158, “Novel 1,2,3-Triazole-sulphadiazine-ZnO Hybrids as Potent Antimicrobial Agents against Carbapenem Resistant Bacteria” (Antibiotics, 2022)
Like-named read-outs stand apart in the source and are kept apart here.

Columns and labels:
[1] = molecular target: IMP-1 (Serratia marcescens, UniProt P52699); assay: In vitro MBLs inhibition assay with CENTA substrate, IMP-1; type: biochemical; settings: for inhibition at 5 µM: 5 µM compound, CENTA 70 µM, read-out: % Inhibition IPM-1 (5 µM)
Description: (§1) Assays of enzyme inhibition were measured in the absence and presence of 5 µM of compound 4a–c and their ZnO conjugated hybrids to determine their inhibitory activity (IMP1 and NDM-1). CENTA (70 µM), a chromogenic cephalosporin substrate, was employed. The chromophore […] is formed when MBLs hydrolyze CENTA, and its generation may be detected spectrophotometrically using a plate reader at = 405 nm (at pH 7.0, ε = 6400 M^−1 cm^−1). Assays of kinetics of the inhibition experiments were carried out in accordance with earlier research. Non-linear regression was used to examine the inhibition data.

[2] = molecular target: NDM-1 (Klebsiella pneumoniae, UniProt C7C422); assay: In vitro MBLs inhibition assay with CENTA substrate, NDM-1; type: biochemical; settings: for inhibition at 5 µM: 5 µM compound, CENTA 70 µM
Description: as §1

[3] = inhibition constant for the competitive inhibition mode, read-out: IPM-1 Kic
[4] = inhibition constant for the uncompetitive inhibition mode, read-out: IPM-1 Kiuc
[5] = inhibition constant for the competitive inhibition mode, read-out: NDM-1 Kic
[6] = inhibition constant for the uncompetitive inhibition mode, read-out: NDM-1 Kiuc

Sequence of NDM-1 (C7C422 29-270, looked up, species assumed): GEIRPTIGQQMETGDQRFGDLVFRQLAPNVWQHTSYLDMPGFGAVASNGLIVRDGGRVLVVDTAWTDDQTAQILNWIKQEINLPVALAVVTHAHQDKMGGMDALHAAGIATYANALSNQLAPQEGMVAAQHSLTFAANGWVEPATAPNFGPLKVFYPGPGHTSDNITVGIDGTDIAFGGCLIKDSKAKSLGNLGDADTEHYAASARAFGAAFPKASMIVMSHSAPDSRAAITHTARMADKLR
Sequence of IMP-1 (P52699 19-246, looked up, species assumed): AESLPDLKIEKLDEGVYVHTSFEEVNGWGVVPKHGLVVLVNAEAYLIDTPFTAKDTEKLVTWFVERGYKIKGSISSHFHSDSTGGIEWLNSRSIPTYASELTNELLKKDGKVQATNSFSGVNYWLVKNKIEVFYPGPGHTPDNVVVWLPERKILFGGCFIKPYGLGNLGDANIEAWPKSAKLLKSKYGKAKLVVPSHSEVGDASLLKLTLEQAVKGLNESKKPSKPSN

SMILES	inhibition at 5 µM [1]	Ki [1, 3]	Ki [1, 4]	inhibition at 5 µM [2]	Ki [2, 5]	Ki [2, 6]
O=S(=O)(Nc1ccccn1)c1ccc(-n2cc(CO)nn2)cc1 [Compound 3b]	75.4%	11.4 µM	7.6 µM	68.7%	9 µM	6 µM
NC(N)=NS(=O)(=O)c1ccc(-n2cc(CO)nn2)cc1 [Compound 3c]	72.9%	10.9 µM	5.1 µM	64.3%	8.5 µM	3.9 µM
O=S(=O)(Nc1ncccn1)c1ccc(-n2cc(CO)nn2)cc1 [Compound 3a]	75%	11.8 µM	7.7 µM	71.2%	9.6 µM	6 µM
